Here are results for one substance from patent publication US12157810B1 (priority 2020, dated 2024).

In the series the test system is cell culture.

For “poly(alloocimene-b-isobutylene-b-alloocimene) [AIBA]”, the “cytotoxicity in cell culture studies” value was “non-cytotoxicity”.
